Source: publication PMC4660213, “Identification and characterization of multiple rubisco activases in chemoautotrophic bacteria” (Nature Communications, 2015)

Experiments:
Type in all cases: biochemical
AfM [1] = target: T1, AfM (Acidithiobacillus ferrooxidans, UniProt B7J5E3); assay: spectrophotometric coupled rubisco assay; conditions: pH 8.0, 25 °C, 1 mM RuBP, 5 mM NaHCO3, 5 mM MgCl2; substrate of ECM, also inhibits the apoenzyme (loose ER complex)
T1 construct: gene cbbL2; His6-ubiquitin fusion cleaved to native N terminus, E. coli BL21 (DE3), hexamer (L6), 313 kDa measured
T1 sequence (B7J5E3 entry or part of it): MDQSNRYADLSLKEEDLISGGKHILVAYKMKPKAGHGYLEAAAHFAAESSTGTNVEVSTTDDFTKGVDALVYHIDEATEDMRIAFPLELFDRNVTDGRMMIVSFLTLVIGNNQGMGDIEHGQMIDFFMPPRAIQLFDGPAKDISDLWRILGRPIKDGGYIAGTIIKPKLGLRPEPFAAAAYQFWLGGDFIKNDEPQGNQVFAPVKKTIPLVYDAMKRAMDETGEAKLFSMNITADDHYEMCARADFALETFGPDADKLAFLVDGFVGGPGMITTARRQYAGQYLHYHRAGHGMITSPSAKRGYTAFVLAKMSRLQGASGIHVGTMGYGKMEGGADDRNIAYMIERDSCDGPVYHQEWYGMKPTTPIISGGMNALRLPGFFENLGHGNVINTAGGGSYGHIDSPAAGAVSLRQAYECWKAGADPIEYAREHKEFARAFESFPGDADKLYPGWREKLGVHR

AfLS = target: T2, AfLS (Acidithiobacillus ferrooxidans, UniProt B7JA24); assay: spectrophotometric coupled rubisco assay of ECMC complex; conditions: activated enzyme (ECM) preincubated with fourfold excess of carboxypentitol bisphosphate (1:1 CABP and carboxyribitol isomer); pH 8.0, 25 °C, 20 mM NaHCO3, Mg2+; active site
T2 construct: gene cbbL2; cbbLS in pET30b, E. coli BL21, ion exchange and gel filtration, L8S8 hexadecamer, predicted 530 kDa; with Ribulose bisphosphate carboxylase small subunit
T2 sequence (B7JA24 whole entry): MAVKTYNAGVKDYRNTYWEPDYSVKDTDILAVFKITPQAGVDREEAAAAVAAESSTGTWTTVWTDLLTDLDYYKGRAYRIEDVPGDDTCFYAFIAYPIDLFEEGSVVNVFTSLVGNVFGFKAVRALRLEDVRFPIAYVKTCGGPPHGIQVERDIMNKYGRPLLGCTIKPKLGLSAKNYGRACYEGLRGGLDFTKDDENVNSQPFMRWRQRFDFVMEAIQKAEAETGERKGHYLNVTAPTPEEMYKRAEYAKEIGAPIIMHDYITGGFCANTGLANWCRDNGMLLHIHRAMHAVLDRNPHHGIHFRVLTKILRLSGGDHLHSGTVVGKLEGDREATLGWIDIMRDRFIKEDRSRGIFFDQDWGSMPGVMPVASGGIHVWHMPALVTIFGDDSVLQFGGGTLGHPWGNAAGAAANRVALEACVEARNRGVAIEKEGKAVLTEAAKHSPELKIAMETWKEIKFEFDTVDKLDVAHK
T2 sequence (B7JA25 1-118 partner): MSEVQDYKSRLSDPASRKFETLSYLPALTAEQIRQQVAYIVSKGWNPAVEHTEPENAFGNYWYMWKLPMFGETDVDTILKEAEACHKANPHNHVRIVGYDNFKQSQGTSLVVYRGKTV

AfM [2] = target: T1, AfM; assay: as above; conditions: activated enzyme (ECM) preincubated with fourfold excess of carboxypentitol bisphosphate (1:1 CABP and carboxyribitol isomer); pH 8.0, 25 °C, 20 mM NaHCO3, Mg2+; active site but 5 mM NaHCO3
Q2O2 [3] = target: T3, Q2O2 (Acidithiobacillus ferrooxidans, UniProt B7J5E4, W83L); assay: coupled ATPase assay (NADH oxidation); conditions: 25 °C; basal, no rubisco
T3 construct: gene cbbQ-2; co-expressed His6-ubiquitin fusions cleaved, E. coli, CbbQ6CbbO1 hetero-oligomer, 285 kDa measured
T3 sequence (B7J5E4 entry or part of it W83L): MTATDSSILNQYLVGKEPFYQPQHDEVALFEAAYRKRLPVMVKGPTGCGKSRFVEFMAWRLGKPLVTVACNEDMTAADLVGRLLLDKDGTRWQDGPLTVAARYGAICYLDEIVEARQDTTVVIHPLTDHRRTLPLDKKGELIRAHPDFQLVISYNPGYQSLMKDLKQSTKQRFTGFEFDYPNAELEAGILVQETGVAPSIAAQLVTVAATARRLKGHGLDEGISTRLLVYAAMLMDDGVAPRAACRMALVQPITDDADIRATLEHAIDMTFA
T3 sequence (B7J5E5 entry or part of it, stated change not applied, further chain): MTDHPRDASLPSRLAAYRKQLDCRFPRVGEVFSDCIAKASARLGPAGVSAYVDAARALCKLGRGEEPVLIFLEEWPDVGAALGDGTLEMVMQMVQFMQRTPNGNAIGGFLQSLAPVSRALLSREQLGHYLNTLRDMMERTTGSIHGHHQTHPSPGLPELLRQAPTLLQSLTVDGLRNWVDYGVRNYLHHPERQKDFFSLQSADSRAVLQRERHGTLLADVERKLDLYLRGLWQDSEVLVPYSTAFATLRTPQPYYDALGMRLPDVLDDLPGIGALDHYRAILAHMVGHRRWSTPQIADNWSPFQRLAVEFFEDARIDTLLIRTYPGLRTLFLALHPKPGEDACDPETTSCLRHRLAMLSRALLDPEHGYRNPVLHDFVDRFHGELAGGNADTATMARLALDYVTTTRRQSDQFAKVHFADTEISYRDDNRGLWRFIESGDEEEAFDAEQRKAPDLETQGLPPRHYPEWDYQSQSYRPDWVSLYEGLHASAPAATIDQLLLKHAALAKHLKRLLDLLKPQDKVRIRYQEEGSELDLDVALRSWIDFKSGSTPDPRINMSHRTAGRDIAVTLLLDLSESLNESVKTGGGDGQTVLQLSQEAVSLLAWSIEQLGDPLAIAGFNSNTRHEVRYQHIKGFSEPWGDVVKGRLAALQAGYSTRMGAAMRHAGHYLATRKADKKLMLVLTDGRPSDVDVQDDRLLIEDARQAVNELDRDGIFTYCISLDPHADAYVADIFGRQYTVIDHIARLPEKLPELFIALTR

AfQ2 = target: T4, AfQ2 (Acidithiobacillus ferrooxidans, UniProt B7J5E4); assay: coupled ATPase assay (NADH oxidation); conditions: 25 °C; basal, no rubisco
T4 construct: gene cbbQ-2; His6-ubiquitin fusion cleaved to native N terminus, E. coli, homohexamer, 173 kDa measured
T4 sequence (B7J5E4 entry or part of it): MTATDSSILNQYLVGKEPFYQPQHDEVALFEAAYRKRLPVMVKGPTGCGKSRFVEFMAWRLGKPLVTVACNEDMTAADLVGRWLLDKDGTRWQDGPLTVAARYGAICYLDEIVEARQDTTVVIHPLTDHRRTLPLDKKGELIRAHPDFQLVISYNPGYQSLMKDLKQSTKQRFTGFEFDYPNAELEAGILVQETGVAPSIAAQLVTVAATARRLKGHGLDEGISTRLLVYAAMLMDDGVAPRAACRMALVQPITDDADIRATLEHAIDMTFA

Q2O2 [4] = target: T5, Q2O2 (Acidithiobacillus ferrooxidans, UniProt B7J5E4, W83F); assay: coupled ATPase assay (NADH oxidation); conditions: 25 °C; basal, no rubisco
T5 construct: gene cbbQ-2; co-expressed His6-ubiquitin fusions cleaved, E. coli, CbbQ6CbbO1 hetero-oligomer, 285 kDa measured
T5 sequence (B7J5E4 entry or part of it W83F): as the sequence (B7J5E4 entry or part of it W83L) above, with L83F counted along it
T5 sequence (B7J5E5 entry or part of it, stated change not applied, further chain): as the sequence (B7J5E5 entry or part of it, stated change not applied, further chain) above

With O=C(COP(=O)(O)O)[C@H](O)[C@H](O)COP(=O)(O)O [RuBP, ribulose-1,5-bisphosphate] the “spectrophotometric coupled rubisco assay” value (AfM [1]) was “the activities of both AfM ECM and ER rapidly converged to a low rate”.
In the case of O=C(O)[C@@](O)(COP(=O)(O)O)[C@H](O)[C@H](O)COP(=O)(O)O (mixture of isomers) [CABP, carboxyarabinitol-1,5-bisphosphate], the “spectrophotometric coupled rubisco assay of ECMC complex” value (AfLS) is reported as “the form I (AfLS) ER and ECMC complexes were inactive” and the “spectrophotometric coupled rubisco assay of ECMC complex” value (AfM [2]) is reported as “AfM bound to the transition state analogue CABP (ECMC) formed stable and inactive complexes”.
Nc1ncnc2c1ncn2[C@@H]1O[C@H](COP(=O)(O)OP(=O)(O)OP(=O)(O)O)[C@@H](O)[C@H]1O [ATP] was tested, and the “coupled ATPase assay (NADH oxidation)” value (Q2O2 [3]) was “The W83L and W83F mutants displayed three and twofold increased basal ATPase activities”, the “coupled ATPase assay (NADH oxidation)” value (AfQ2) was “Both AfQ2 and Q2O2ΔC444 displayed a low ATPase activity” and the “coupled ATPase assay (NADH oxidation)” value (Q2O2 [4]) was “The W83L and W83F mutants displayed three and twofold increased basal ATPase activities”.
